Data as given in patent US20260216184A1 (SHENZHEN NEWDEL BIOTECH CO., LTD., priority 2023, published 2026).

How the values were obtained:
[1] = Relative body weight change in UUO model mice; type: in vivo, C57 mice; settings: Group 7, 250 mg/kg BID P.O
Description: (§1) Modeling a UUO model mouse: C57 mice (male, 8 weeks old, weighing 20-25 g) were purchased from Zhejiang Vital River Laboratory Animal Technology Co., Ltd. After anesthesia, a 1-2 cm incision was made in the left kidney region of the abdomen, and the intestinal tract was carefully removed to expose the ureter. The ureter was ligated with double lines and cut off at the middle position of the double-line ligation. The intestinal tract was recovered, and the incision was stitched.
(§2) All animals were administered orally on the day of surgery. Animals in the sham group and vehicle group were administered a test drug vehicle (5% DMSO+5% Tween80+20% PEG400+70% H2O). All administration solutions were freshly prepared before use. The experiment ended 10 days after the administration.
(§3) The preparation method for the positive drug included weighing pirfenidone into a mortar, adding a small amount of 0.5% CMC-Na, grinding the mixture fully and uniformly, supplementing the mixture with the remaining 0.5% CMC-Na, and mixing well for use.
Relative body weight change=body weight on day n/body weight on day 0×100%

[2] = test system: UUO-induced renal fibrosis; experiment: UUO-induced renal fibrosis in mice, H&E staining of kidney tissues; type: in vivo, C57 mice; settings: 10 days
Description: as §1, §2, §3
(§4) At the end of the experiment, the left kidney was taken and placed in 4% PFA for fixation. The kidney was conventionally sectioned and stained 24 h after the fixation.

[3] = biological target: T1, EPHA6 (Homo sapiens, UniProt Q9UF33); experiment: EPHA6 enzyme activity assay (HTRF); type: biochemical; settings: ATP 25 μM; read-out: IC50 against EPHA6
T1 sequence (Q9UF33 23-1036): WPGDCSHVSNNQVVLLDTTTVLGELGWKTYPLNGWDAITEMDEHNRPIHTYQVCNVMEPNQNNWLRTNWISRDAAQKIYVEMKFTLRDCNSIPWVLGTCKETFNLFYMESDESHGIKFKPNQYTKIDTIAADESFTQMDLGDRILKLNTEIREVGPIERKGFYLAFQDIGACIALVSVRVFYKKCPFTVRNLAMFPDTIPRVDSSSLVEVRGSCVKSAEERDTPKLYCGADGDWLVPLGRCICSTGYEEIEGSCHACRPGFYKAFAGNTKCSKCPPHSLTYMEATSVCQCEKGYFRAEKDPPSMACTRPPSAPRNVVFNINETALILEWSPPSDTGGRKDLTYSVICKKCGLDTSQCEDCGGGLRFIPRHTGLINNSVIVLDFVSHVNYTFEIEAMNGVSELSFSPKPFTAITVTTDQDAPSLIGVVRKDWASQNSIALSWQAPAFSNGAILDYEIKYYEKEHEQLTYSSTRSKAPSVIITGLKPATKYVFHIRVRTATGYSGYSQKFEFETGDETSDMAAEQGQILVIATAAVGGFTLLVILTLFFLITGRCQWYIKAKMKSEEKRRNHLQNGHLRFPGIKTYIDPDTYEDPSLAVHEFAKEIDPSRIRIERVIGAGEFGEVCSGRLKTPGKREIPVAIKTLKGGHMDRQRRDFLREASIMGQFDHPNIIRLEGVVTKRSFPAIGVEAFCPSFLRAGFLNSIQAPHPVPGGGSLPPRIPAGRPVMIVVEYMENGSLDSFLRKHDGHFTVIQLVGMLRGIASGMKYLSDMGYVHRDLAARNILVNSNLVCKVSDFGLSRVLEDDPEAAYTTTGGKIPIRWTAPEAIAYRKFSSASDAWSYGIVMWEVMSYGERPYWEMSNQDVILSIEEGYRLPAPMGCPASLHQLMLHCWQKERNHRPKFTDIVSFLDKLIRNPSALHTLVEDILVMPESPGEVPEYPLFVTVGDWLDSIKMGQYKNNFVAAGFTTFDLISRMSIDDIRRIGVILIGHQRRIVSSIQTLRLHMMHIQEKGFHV
Experimental: Replicate wells were set for the assay. 2× kinase solution was prepared with 1× kinase reaction buffer (5× buffer, 5 mM MgCl2, 1 mM DTT, H2O, and 1 mM MnCl2). 2.5 μL of EPHA6 (0.5 nM, 08-125, Carna) solution was transferred to a 384 reaction plate.

[4] = test system: UUO-induced renal fibrosis; experiment: UUO-induced renal fibrosis in mice, Masson staining of collagen fibers in kidney tissues; type: in vivo, C57 mice
Description: as §1, §2, §3, §4

[5] = test system: α-SMA; experiment: UUO-induced renal fibrosis in mice, α-SMA immunohistochemical staining of kidney tissues; type: in vivo, C57 mice
Description: as §1, §2, §3, §4

[6] = test system: F4/80 (macrophages); experiment: UUO-induced renal fibrosis in mice, F4/80 immunohistochemical staining of kidney tissues; type: in vivo, C57 mice; settings: 10 days
Description: as §1, §2, §3, §4

## Cc1ccc(=O)n(-c2ccccc2)c1 [pirfenidone]
[1]; day 0
  Relative body weight change: 100 ± 0.00%
[1]; day 1
  Relative body weight change: 90.41 ± 0.25%
[1]; day 2
  Relative body weight change: 89.78 ± 0.81%
[1]; day 3
  Relative body weight change: 88.90 ± 0.75%
[1]; day 4
  Relative body weight change: 90.19 ± 0.85%
[1]; day 5
  Relative body weight change: 91.53 ± 0.62%
[1]; day 6
  Relative body weight change: 91.83 ± 0.85%
[1]; day 7
  Relative body weight change: 89.72 ± 0.68%
[1]; day 8
  Relative body weight change: 90.68 ± 0.85%
[1]; day 9
  Relative body weight change: 93.04 ± 0.66%
[1]; day 10
  Relative body weight change: 96.16 ± 1.10%
[2]; 250 mg/kg BID P.O
  H&E staining of kidney tissue, compared with the vehicle group: a looser glomerular structure and no significant material deposition in the renal tubular spaces

## Cc1c(C#Cc2cnc3ccc(N4CCC(O)CC4)nn23)cccc1C(=O)Nc1cc(Cl)cc(C(F)(F)F)c1 [compound 1, N-(3-chloro-5-(trifluoromethyl)phenyl)-3-((6-(4-hydroxypiperidin-1-yl)imidazo[1,2-b]pyridazin-3-yl)ethynyl)-2-methylbenzamide]
[3]
  IC50: 12.8 nM
[2]; compound 1 dose groups (3, 10, 30, 100 mg/kg QD P.O)
  H&E staining of kidney tissue, compared with the vehicle group: reduced tubular atrophy, a looser glomerular structure, and no significant thickening of tubular basement membrane
[4]; 3 mpk QD P.O, 10 days (FIG. 3B)
  Masson staining positive area, quantitative analysis: significantly reduce the Masson staining positive area
[4]; 3 mpk, 10 mpk, 30 mpk and 100 mpk groups, QD P.O, 10 days (FIG. 3A)
  Masson staining, collagen deposition in the renal tubular spaces: significant effect in relieving the collagen deposition
[4]; UUO mice, QD P.O, 10 days
  onset dose for treating renal fibrosis: 3 mg/kg
[5]; 3 mpk QD P.O, 10 days, P<0.05 (FIG. 4B)
  α-SMA positive area compared with the vehicle group: significantly reduced
[5]; 10 mpk, 30 mpk and 100 mpk QD P.O, 10 days (FIG. 4B)
  levels of α-SMA compared with the vehicle group: significantly reduced
[6]; 30 mpk and 100 mpk QD P.O
  expression levels of macrophages (F4/80) compared with the vehicle group: significantly reduced
[6]; each dose group (3, 10, 30, 100 mpk QD P.O)
  expression levels of macrophages (F4/80) compared with the vehicle group: reduced expression levels of macrophages
